Source: paper PMC7413254 (Nature Communications, 2020)
Read-outs that look alike come from different tables or passages of the source.

Legend:
non-expressing oocytes [1] = test: cells; format: cell-based, Xenopus laevis; conditions: non-expressing oocytes, total [3H]CQ transport, normalised to the oocyte type control
Summary of the method: (§1)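 Washed oocytes (ten per treatment) were exposed to label in pH 5.5 ND96 for 1.5 h at 27.5 °C. Buffer was then removed, cells rinsed in ice-cold ND96, lysed in SDS and counted.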

PfCRT^3D7 [2] = biological target: T1, PfCRT^3D7 (Plasmodium falciparum, UniProt Q8IBZ9); test: cell-based; format: cell-based; conditions: PfCRT3D7 oocytes, total [3H]CQ transport, normalised to the oocyte type control
T1 sequence (Q8IBZ9 59-398): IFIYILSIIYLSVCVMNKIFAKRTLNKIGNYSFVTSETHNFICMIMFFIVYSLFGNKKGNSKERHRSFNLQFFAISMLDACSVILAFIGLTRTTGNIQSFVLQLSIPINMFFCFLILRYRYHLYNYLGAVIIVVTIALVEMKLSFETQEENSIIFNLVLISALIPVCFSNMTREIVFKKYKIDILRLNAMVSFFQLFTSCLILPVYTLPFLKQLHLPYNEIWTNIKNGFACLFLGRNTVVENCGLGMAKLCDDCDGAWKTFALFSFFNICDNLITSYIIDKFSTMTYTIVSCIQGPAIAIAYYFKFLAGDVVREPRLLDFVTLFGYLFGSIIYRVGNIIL
Summary of the method: as §1

PfNT1 = biological target: T2, PfNT1 (Plasmodium falciparum, UniProt Q8IDM6); test: cell-based; format: cell-based; conditions: PfNT1 oocytes, total [3H]CQ transport, normalised to the oocyte type control
T2 construct: expressed in transfected cells; host or cells: Xenopus laevis oocytes (stage V-VI), cRNA-injected
T2 sequence (Q8IDM6 whole entry): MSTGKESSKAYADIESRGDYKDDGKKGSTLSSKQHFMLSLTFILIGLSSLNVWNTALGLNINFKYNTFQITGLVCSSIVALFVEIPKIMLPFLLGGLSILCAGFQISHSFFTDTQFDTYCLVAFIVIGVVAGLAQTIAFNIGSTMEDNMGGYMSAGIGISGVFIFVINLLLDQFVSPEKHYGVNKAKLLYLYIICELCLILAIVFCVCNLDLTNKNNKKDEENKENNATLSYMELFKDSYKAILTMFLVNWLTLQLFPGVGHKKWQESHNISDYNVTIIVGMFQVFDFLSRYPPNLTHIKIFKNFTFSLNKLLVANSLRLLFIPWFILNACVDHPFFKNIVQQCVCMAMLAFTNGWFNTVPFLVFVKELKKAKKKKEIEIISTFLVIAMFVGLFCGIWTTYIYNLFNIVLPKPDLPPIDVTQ
Summary of the method: (§2)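 Transport measured in Xenopus oocytes expressing the transporters, 1.5 h at 27.5 °C in ND96 pH 5.5 unless noted. For trans-stimulation, VF-6 injected in 25 nL ND96 at pH 5.0–7.0 or Na^+-free (choline) buffer; intracellular levels based on ~400 nL oocyte volume. Ten oocytes per treatment, ≥4 experiments.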

PfCRT^3D7 [3] = biological target: T1, PfCRT^3D7; test: cell-based; format: cell-based; conditions: for Uptake of [3H]CQ (% PfCRT3D7 control), trans-stimulation / PfCRT-mediated [3H]CQ transport, trans-stimulation (% PfCRT3D7 control): PfCRT3D7 oocytes; for Uptake of [3H]CQ (% PfCRT3D7 control), trans-stimulation: total [3H]CQ transport, normalised to the oocyte type control; for PfCRT-mediated [3H]CQ transport, trans-stimulation (% PfCRT3D7 control): normalised to oocyte type control
Summary of the method: as §2

PfCRT^Dd2 [4] = biological target: T3, PfCRT^Dd2 (Plasmodium falciparum, UniProt Q9N623, A220S/I356T/K76T/M74I/N326S/N75E/Q271E/R371I); test: cell-based; format: cell-based; conditions: for Uptake of [3H]CQ (% PfCRTDd2 control), trans-stimulation / PfCRT-mediated [3H]CQ transport, trans-stimulation (% PfCRTDd2 control): PfCRTDd2 oocytes; for Uptake of [3H]CQ (% PfCRTDd2 control), trans-stimulation: total [3H]CQ transport, normalised to the oocyte type control; for PfCRT-mediated [3H]CQ transport, trans-stimulation (% PfCRTDd2 control): normalised to oocyte type control; for [3H]CQ transport (% PfCRTDd2 control), trans-stimulation, PfCRTDd2: PfCRT-mediated component (background subtracted), mean ± SEM, SEM
T3 sequence (Q9N623 whole entry A220S/I356T/K76T/M74I/N326S/N75E/Q271E/R371I): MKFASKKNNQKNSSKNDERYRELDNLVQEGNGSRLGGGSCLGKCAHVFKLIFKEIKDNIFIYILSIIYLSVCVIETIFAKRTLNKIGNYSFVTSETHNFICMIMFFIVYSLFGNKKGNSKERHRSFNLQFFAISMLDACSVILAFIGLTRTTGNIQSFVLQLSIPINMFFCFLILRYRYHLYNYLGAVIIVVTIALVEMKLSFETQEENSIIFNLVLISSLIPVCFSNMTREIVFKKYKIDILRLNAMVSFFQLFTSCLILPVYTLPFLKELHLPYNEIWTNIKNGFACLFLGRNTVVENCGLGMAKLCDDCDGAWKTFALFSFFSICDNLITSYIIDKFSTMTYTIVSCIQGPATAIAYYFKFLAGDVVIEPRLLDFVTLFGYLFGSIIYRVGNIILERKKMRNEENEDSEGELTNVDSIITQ
Summary of the method: as §2

PfCRT^Ecu1110 [5] = biological target: T4, PfCRT^Ecu1110 (Plasmodium falciparum, UniProt Q9N623, A220S/I356L/K76T/N326D); test: cell-based; format: cell-based; conditions: for PfCRT-mediated [3H]CQ transport, trans-stimulation (% PfCRTEcu1110 control): normalised to oocyte type control; for [3H]CQ transport (% PfCRTDd2 control), trans-stimulation, PfCRTEcu1110: PfCRT-mediated component (background subtracted), sheet title says normalised to PfCRTDd2 control, mean ± SEM, SEM
T4 sequence (Q9N623 whole entry A220S/I356L/K76T/N326D): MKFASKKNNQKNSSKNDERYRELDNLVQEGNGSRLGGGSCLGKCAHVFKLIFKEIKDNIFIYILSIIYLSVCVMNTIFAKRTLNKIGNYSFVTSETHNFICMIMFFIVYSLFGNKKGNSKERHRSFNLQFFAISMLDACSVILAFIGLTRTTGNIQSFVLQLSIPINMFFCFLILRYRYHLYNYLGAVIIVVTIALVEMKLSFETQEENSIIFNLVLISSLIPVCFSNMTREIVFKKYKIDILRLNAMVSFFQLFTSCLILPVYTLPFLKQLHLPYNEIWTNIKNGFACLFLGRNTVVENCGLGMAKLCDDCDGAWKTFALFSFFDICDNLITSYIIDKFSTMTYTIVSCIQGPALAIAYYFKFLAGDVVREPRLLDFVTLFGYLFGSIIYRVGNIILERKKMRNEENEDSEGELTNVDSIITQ
Summary of the method: as §2

PfCRT^Dd2 [6] = biological target: T3, PfCRT^Dd2; test: [3H]CQ uptake into Xenopus oocytes, cis-inhibition by unlabelled solute; format: cell-based; conditions: PfCRTDd2 oocytes, background [3H]CQ accumulation subtracted, normalised to oocyte type control
Summary of the method: as §1

PfCRT^Ecu1110 [7] = biological target: T4, PfCRT^Ecu1110; test: as above; format: cell-based; conditions: for Uptake of [3H]CQ (% PfCRTEcu1110 control), cis-inhibition / PfCRT-mediated [3H]CQ transport, cis-inhibition (% PfCRTEcu1110 control): PfCRTEcu1110 oocytes; for Uptake of [3H]CQ (% PfCRTEcu1110 control), cis-inhibition: total [3H]CQ transport, normalised to the oocyte type control; for PfCRT-mediated [3H]CQ transport, cis-inhibition (% PfCRTEcu1110 control): background [3H]CQ accumulation subtracted, normalised to oocyte type control
Summary of the method: as §1

non-expressing oocytes [8] = format: cell-based, Xenopus laevis; conditions: non-expressing oocytes, total [3H]CQ transport, normalised to the oocyte type control
Summary of the method: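 Oocytes (ten per treatment, ≥4 independent frogs/days) were preloaded by injecting VF-6 in 25 nL ND96 at pH 5.0, 5.5, 6.0 or 7.0, or Na^+-free choline buffer, then uptake run 1.5 h, 27.5 °C, ND96 pH 5.5 by default. Internal concentrations assumed ~400 nL oocyte volume.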

[9] = [test solute]i = 45 mM (30 mM for some solutes due to solubility)
[10] = [test solute]i = 5 mM (intracellular)
[11] = [test solute]i = 45 mM (intracellular; 30 mM for some solutes due to solubility)
[12] = [test solute]i = 5 mM (injected)

**Q.** Which “Uptake of [3H]CQ (% non-expressing oocyte control), cis-inhibition” value (non-expressing oocytes [1]; [test solute] = 0.5 mM) does the source give for HVDD [HD-4] here?
**A.** 99 ± 5.3 % non-expressing oocyte control

**Q.** What about the “Uptake of [3H]CQ (% non-expressing oocyte control), cis-inhibition” value (non-expressing oocytes [1]; [test solute] = 1 mM) of the same substance?
**A.** 100 ± 5.2 % non-expressing oocyte control

**Q.** And the “Uptake of [3H]CQ (% non-expressing oocyte control), cis-inhibition” value (non-expressing oocytes [1]; [test solute] = 2 mM)?
**A.** 97 ± 5.5 % non-expressing oocyte control

**Q.** And the “Uptake of [3H]CQ (% PfCRT3D7 control), cis-inhibition” value (PfCRT^3D7 [2]; [test solute] = 0.5 mM)?
**A.** 100 ± 3.8 % PfCRT3D7 control

**Q.** And the “Uptake of [3H]CQ (% PfCRT3D7 control), cis-inhibition” value (PfCRT^3D7 [2]; [test solute] = 1 mM)?
**A.** 102 ± 3.7 % PfCRT3D7 control

**Q.** And the “Uptake of [3H]CQ (% PfCRT3D7 control), cis-inhibition” value (PfCRT^3D7 [2]; [test solute] = 2 mM)?
**A.** 99 ± 3.6 % PfCRT3D7 control

**Q.** And the “Uptake of [3H]CQ (% PfNT1 control), trans-stimulation” value (PfNT1; [test solute]i = 5 mM)?
**A.** 100 ± 2.7 % PfNT1 control

**Q.** And the “Uptake of [3H]CQ (% PfNT1 control), trans-stimulation” value (PfNT1; [9])?
**A.** 99 ± 2.5 % PfNT1 control

**Q.** And the “Uptake of [3H]CQ (% PfCRT3D7 control), trans-stimulation” value (PfCRT^3D7 [3]; [test solute]i = 5 mM)?
**A.** 98 ± 4.1 % PfCRT3D7 control

**Q.** What about the “Uptake of [3H]CQ (% PfCRT3D7 control), trans-stimulation” value (PfCRT^3D7 [3]; [9]) of the same substance?
**A.** 96 ± 1.7 % PfCRT3D7 control

**Q.** And the “[3H]CQ transport (% PfCRT3D7 control), trans-stimulation, PfCRT3D7” value (PfCRT^3D7 [3]; SEM)?
**A.** 0.1 ± 0.01

**Q.** And the “PfCRT-mediated [3H]CQ transport, trans-stimulation (% PfCRT3D7 control)” value (PfCRT^3D7 [3]; [10])?
**A.** 96 ± 3.3 % PfCRT3D7 control

**Q.** And the “PfCRT-mediated [3H]CQ transport, trans-stimulation (% PfCRT3D7 control)” value (PfCRT^3D7 [3]; [11])?
**A.** 94 ± 4.9 % PfCRT3D7 control

**Q.** What about the “Uptake of [3H]CQ (% PfCRTDd2 control), trans-stimulation” value (PfCRT^Dd2 [4]; [test solute]i = 5 mM) of the same substance?
**A.** 99 ± 4.3 % PfCRTDd2 control

**Q.** And the “Uptake of [3H]CQ (% PfCRTDd2 control), trans-stimulation” value (PfCRT^Dd2 [4]; [9])?
**A.** 100 ± 2.4 % PfCRTDd2 control

**Q.** And the “PfCRT-mediated [3H]CQ transport, trans-stimulation (% PfCRTDd2 control)” value (PfCRT^Dd2 [4]; [10])?
**A.** 97 ± 2.9 % PfCRTDd2 control

**Q.** And the “PfCRT-mediated [3H]CQ transport, trans-stimulation (% PfCRTDd2 control)” value (PfCRT^Dd2 [4]; [11])?
**A.** 98 ± 3.9 % PfCRTDd2 control

**Q.** And the “[3H]CQ transport (% PfCRTDd2 control), trans-stimulation, PfCRTDd2” value (PfCRT^Dd2 [4]; [12])?
**A.** 97 ± 2.9 % PfCRTDd2 control

**Q.** What about the “[3H]CQ transport (% PfCRTDd2 control), trans-stimulation, PfCRTDd2” value (PfCRT^Dd2 [4]; [9]) of the same substance?
**A.** 98 ± 3.9 % PfCRTDd2 control

**Q.** And the “Uptake of [3H]CQ (% PfCRTEcu1110 control), trans-stimulation” value (PfCRT^Ecu1110 [5]; PfCRTEcu1110 oocytes, [test solute]i = 45 mM (30 mM for some solutes due to solubility), total [3H]CQ transport, normalised to the oocyte type control)?
**A.** 99 ± 3.2 % PfCRTEcu1110 control

**Q.** And the “PfCRT-mediated [3H]CQ transport, trans-stimulation (% PfCRTEcu1110 control)” value (PfCRT^Ecu1110 [5]; [test solute]i = 5 mM (intracellular), PfCRTEcu1110 oocytes)?
**A.** 99 ± 4.9 % PfCRTEcu1110 control

**Q.** What about the “PfCRT-mediated [3H]CQ transport, trans-stimulation (% PfCRTEcu1110 control)” value (PfCRT^Ecu1110 [5]; [test solute]i = 45 mM (intracellular; 30 mM for some solutes due to solubility), PfCRTEcu1110 oocytes) of the same substance?
**A.** 97 ± 4.8 % PfCRTEcu1110 control

**Q.** What about the “[3H]CQ transport (% PfCRTDd2 control), trans-stimulation, PfCRTEcu1110” value (PfCRT^Ecu1110 [5]; [12]) of the same substance?
**A.** 30 ± 1.6 % PfCRTEcu1110 control

**Q.** And the “[3H]CQ transport (% PfCRTDd2 control), trans-stimulation, PfCRTEcu1110” value (PfCRT^Ecu1110 [5]; [9])?
**A.** 29 ± 1.5 % PfCRTEcu1110 control

**Q.** What about the “PfCRT-mediated [3H]CQ transport, cis-inhibition (% PfCRTDd2 control)” value (PfCRT^Dd2 [6]; [test solute] = 0.5 mM) of the same substance?
**A.** 44 ± 2.3 % PfCRTDd2 control

**Q.** And the “PfCRT-mediated [3H]CQ transport, cis-inhibition (% PfCRTDd2 control)” value (PfCRT^Dd2 [6]; [test solute] = 1 mM)?
**A.** 31 ± 1.0 % PfCRTDd2 control

**Q.** And the “PfCRT-mediated [3H]CQ transport, cis-inhibition (% PfCRTDd2 control)” value (PfCRT^Dd2 [6]; [test solute] = 2 mM)?
**A.** 19 ± 0.8 % PfCRTDd2 control

**Q.** What about the “Uptake of [3H]CQ (% PfCRTEcu1110 control), cis-inhibition” value (PfCRT^Ecu1110 [7]; [test solute] = 0.5 mM) of the same substance?
**A.** 53 ± 8.3 % PfCRTEcu1110 control

**Q.** What about the “Uptake of [3H]CQ (% PfCRTEcu1110 control), cis-inhibition” value (PfCRT^Ecu1110 [7]; [test solute] = 1 mM) of the same substance?
**A.** 44 ± 6.1 % PfCRTEcu1110 control

**Q.** What about the “Uptake of [3H]CQ (% PfCRTEcu1110 control), cis-inhibition” value (PfCRT^Ecu1110 [7]; [test solute] = 2 mM) of the same substance?
**A.** 32 ± 4.7 % PfCRTEcu1110 control

**Q.** What about the “PfCRT-mediated [3H]CQ transport, cis-inhibition (% PfCRTEcu1110 control)” value (PfCRT^Ecu1110 [7]; [test solute] = 0.5 mM) of the same substance?
**A.** 49 ± 1.4 % PfCRTEcu1110 control

**Q.** What about the “PfCRT-mediated [3H]CQ transport, cis-inhibition (% PfCRTEcu1110 control)” value (PfCRT^Ecu1110 [7]; [test solute] = 1 mM) of the same substance?
**A.** 39 ± 3.1 % PfCRTEcu1110 control

**Q.** And the “PfCRT-mediated [3H]CQ transport, cis-inhibition (% PfCRTEcu1110 control)” value (PfCRT^Ecu1110 [7]; [test solute] = 2 mM)?
**A.** 28 ± 1.3 % PfCRTEcu1110 control

**Q.** What about the “[3H]CQ transport (% PfCRTEcu1110 control), cis-inhibition, PfCRTEcu1110” value (PfCRT^Ecu1110 [7]; cis-inhibition, [test solute] = 2 mM, PfCRT-mediated component (background subtracted), sheet title says normalised to PfCRTDd2 control, mean ± SEM, SEM) of the same substance?
**A.** 9.0 ± 0.03 % PfCRTEcu1110 control

**Q.** What about the “Uptake of [3H]CQ (% non-expressing oocyte control), trans-stimulation” value (non-expressing oocytes [8]; [test solute]i = 5 mM) of the same substance?
**A.** 100 ± 3.6 % non-expressing oocyte control

**Q.** What about the “Uptake of [3H]CQ (% non-expressing oocyte control), trans-stimulation” value (non-expressing oocytes [8]; [9]) of the same substance?
**A.** 98 ± 3.3 % non-expressing oocyte control
